Where two headings read alike, the source gives them in different places.
Key:
RNase A [1] = target: T1, RNase A (Bos taurus, UniProt P61823); format: biochemical, bovine; details: for Ki: 25° C.
T1 sequence (P61823 27-150): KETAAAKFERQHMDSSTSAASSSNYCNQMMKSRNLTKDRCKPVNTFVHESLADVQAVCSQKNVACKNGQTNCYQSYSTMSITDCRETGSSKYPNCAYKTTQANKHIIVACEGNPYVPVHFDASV
Experimental: Inhibition was assessed from the dependence of 1/v0 on [I], where v0 represents the velocity measured during the initial 5-10% of the enzymatic reaction and [I] is the inhibitor concentration. Since the substrate concentration used in these assays is well below Km, the -[I] intercept of such a plot should closely approximate Ki for simple inhibition mechanisms.

RNase A [2] = target: T1, RNase A; assay: RNA protection assay (tRNA, agarose gel electrophoresis); format: biochemical, bovine; details: 0.5 mM inhibitor, 0.2 nM RNase A, pH 7.0, 20 minutes, 25° C.
Experimental: 3 μg of tRNA were incubated in 30 μl of 20 mM Hepes, 130 mM NaCl (pH 7.0) containing 30 μg/ml bovine serum albumin, 0.2 nM RNase A and the inhibitor. After 20 minutes of incubation at 25° C., the reaction mixture was analyzed by agarose gel electrophoresis and staining with ethidium bromide. This assay was chosen since a single endonucleolytic cleavage in a polymeric RNA molecule can produce a large variation of the molecular size which can be easily detected by agarose gel electrophoresis.

RNase A [3] = target: T1, RNase A; details: pH 7; read-out: inhibition constant Ki (reported); cited from earlier work
hRNase-2 = hRNase-2 (Homo sapiens, UniProt P10153); assay: Inhibition of human ribonuclease hRNase-2, method of Example IX; format: biochemical
Experimental: (§1) Assays were performed at 25° C. with the dinucleotide cytidylyl-(3',5')-guanosine (75 μM) as substrate in 0.2M Mes (pH 5.9), 0.2M Hepes (pH 7.0), or 0.2M Hepes (pH 8.0), containing 10 μg/ml bovine serum albumin. The decrease in absorbance at 286 nm following the addition of RNase A was continuously monitored. Inhibition was assessed from the dependence of 1/v0 on [I], where v0 represents the velocity measured during the initial 5-10% of the enzymatic reaction and [I] is the inhibitor concentration. Since the substrate concentration used in these assays is well below Km, the -[I] intercept of such a plot should closely approximate Ki for simple inhibition mechanisms.

hRNase-4 = target: T2, hRNase-4 (Homo sapiens, UniProt P34096); assay: Inhibition of human ribonuclease hRNase-4, method of Example IX
T2 sequence (P34096 29-147): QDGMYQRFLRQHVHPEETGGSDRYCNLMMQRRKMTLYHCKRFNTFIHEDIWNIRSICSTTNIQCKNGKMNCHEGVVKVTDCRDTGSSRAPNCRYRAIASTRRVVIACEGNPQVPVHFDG
Experimental: as §1

RNase A [4] = target: T1, RNase A; assay: Inhibition of RNase A activity toward CpA, HPLC method
Experimental: Assays were performed in 60 μl of 0.2M Mes (pH 5.9) containing 50 μg/ml nuclease-free bovine serum albumin (obtained from Worthington), 20 μM CpA, and 23-320 pM RNase A. After 14-96 minutes of incubation at 25° C., substrate and products were quantitated by C18 /HPLC with a 20 minute linear gradient from 0 to 5.6% acetonitrile in 0.1% trifluoroacetic acid at a flow rate of 1.5 ml/min recording absorbance at 254 nm. Values of Km /kcat were then calculated (according to the method of Shapiro et al., 1986, Biochemistry 25:7255-7264) and plotted vs. the inhibitor concentration [I]. The Ki value is the -[I] intercept of a three- or four-point plot of Km /kcat, vs. [I] and was obtained by linear regression.

[5] = 0.2M Hepes pH 7.0, 75 μM CpG, read-out: Ki at indicated pH, pH 7
[6] = 0.2M Hepes pH 8.0, 75 μM CpG, read-out: Ki at indicated pH, pH 8
[7] = 0.2M Mes pH 5.9, 75 μM CpG, read-out: Ki at indicated pH, pH 5.9

Sequence of hRNase-2 (P10153 28-161): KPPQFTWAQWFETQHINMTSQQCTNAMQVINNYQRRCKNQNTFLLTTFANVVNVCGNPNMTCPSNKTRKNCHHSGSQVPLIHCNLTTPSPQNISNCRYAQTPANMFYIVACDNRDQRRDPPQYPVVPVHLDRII

Molecule: Nc1ncnc2c1ncn2[C@@H]1O[C@H](COP(=O)(O)OP(=O)(O)O[C@H]2C[C@H](n3ccc(=O)[nH]c3=O)O[C@@H]2CO)[C@@H](OP(=O)(O)O)[C@H]1O [dUppAp, 2'-deoxyuridine-(3'-Pβ)-5'-diphosphoadenosine-3'-phosphate]
- Ki (RNase A [1]; [5]): 1.1 µM
- Ki (RNase A [1]; [6]): 44 µM
- Ki (RNase A [1]; [7]): 0.13 µM

Molecule: Cc1cn([C@H]2C[C@H](OP(=O)(O)OP(=O)(O)OC[C@H]3O[C@@H](n4cnc5c(N)ncnc54)C[C@@H]3O)[C@@H](CO)O2)c(=O)[nH]c1=O [TppdA, thymidine-(3'-Pβ)-5'-diphospho-2'-deoxyadenosine]
- Ki (RNase A [1]; [7]): 3.5 µM

Molecule: uridine-vanadate
- protection of tRNA from the catalytic action of RNase A (RNase A [2]): partial protection
- Ki (RNase A [3]): 10 µM

Molecule: Nc1ncnc2c1ncn2[C@@H]1O[C@H](COP(=O)(O)OP(=O)(O)O[C@H]2C[C@H](n3ccc(=O)[nH]c3=O)O[C@@H]2CO)[C@@H](O)[C@H]1OP(=O)(O)O [dUppA2'p, 2'-deoxyuridine-(3'-Pβ)-5'-diphosphoadenosine-2'-phosphate]
- Ki (RNase A [1]; [7]): 0.66 µM
- fold higher Ki than that for dUppAp (RNase A [1]; pH 5.9): 5 fold

Molecule: Cc1cn([C@H]2C[C@H](OP(=O)(O)OP(=O)(O)OC[C@H]3O[C@@H](n4cnc5c(N)ncnc54)[C@H](O)[C@@H]3OP(=O)(O)O)[C@@H](COP(=O)(O)O)O2)c(=O)[nH]c1=O [pTppAp, 5'-phosphothymidine-(3'-Pβ)-5'-diphosphoadenosine-3'-phosphate]
- Ki (hRNase-2; pH 5.9, read-out: Ki at pH 5.9, hRNase-2): 0.5 µM
- Ki (hRNase-4): 0.27 µM
- Ki (RNase A [1]; [5]): 0.18 µM
- Ki (RNase A [1]; [6]): 28 µM
- Ki (RNase A [1]; [7]): 0.052 µM
- factor by which RNase A inhibition constant is lower than that for ppAp (RNase A [1]; pH 5.9): 4.6
- factor by which RNase A inhibition constant is lower than that for ppAp (RNase A [1]; pH 7): 7.2
- factor by which RNase A inhibition constant is lower than that for ppAp (RNase A [1]; pH 8): 7.8

Molecule: Nc1ncnc2c1ncn2[C@@H]1O[C@H](COP(=O)(O)OP(=O)(O)O)[C@@H](OP(=O)(O)O)[C@H]1O [ppAp, 5'-diphosphoadenosine-3'-phosphate]
- protection of tRNA from the catalytic action of RNase A (RNase A [2]): fully protecting
- Ki (hRNase-2): 0.25 µM
- Ki (RNase A [4]): 0.24 µM
- Ki (RNase A [1]; [5]): 1.3 µM
- Ki (RNase A [1]; [6]): 217 µM
- Ki (RNase A [1]; [7]): 0.24 µM

Molecule: Nc1ncnc2c1ncn2[C@@H]1O[C@H](COP(=O)(O)OP(=O)(O)O[C@H]2C[C@H](n3ccc(=O)[nH]c3=O)O[C@@H]2COP(=O)(O)O)[C@@H](OP(=O)(O)O)[C@H]1O [pdUppAp, 5'-phospho-2'-deoxyuridine-(3'-Pβ)-5'-diphosphoadenosine-3'-phosphate]
- Ki (hRNase-2): 0.22 µM
- Ki (hRNase-4): 0.28 µM
- Ki (RNase A [1]; [5]): 0.21 µM
- Ki (RNase A [1]; [6]): 22 µM
- Ki (RNase A [1]; [7]): 0.035 µM
- factor by which RNase A inhibition constant is lower than that for ppAp (RNase A [1]; pH 5.9): 6.9
- factor by which RNase A inhibition constant is lower than that for ppAp (RNase A [1]; pH 7): 6.2
- factor by which RNase A inhibition constant is lower than that for ppAp (RNase A [1]; pH 8): 9.9

Molecule: Nc1ccn([C@@H]2O[C@H](CO)[C@@H](O)[C@H]2OP(=O)(O)O)c(=O)n1 [2'-CMP, Cytidine 2'-monophosphate]
- protection of tRNA from the catalytic action of RNase A (RNase A [2]): partial protection
- Ki (RNase A [4]): 3.1 µM
- Ki (RNase A [3]): 147 µM

Molecule: Cc1cn([C@H]2C[C@H](OP(=O)(O)OC[C@H]3O[C@@H](n4cnc5c(N)ncnc54)C[C@@H]3O)[C@@H](CO)O2)c(=O)[nH]c1=O [TpdA, thymidylyl-(3'-5')-2'-deoxyadenosine]
- Ki (RNase A [4]): 1300 µM

Molecule: Nc1ncnc2c1ncn2[C@@H]1O[C@H](COP(=O)(O)O)[C@@H](OP(=O)(O)O)[C@H]1O [pAp, adenosine 3',5'-diphosphate]
- Ki (RNase A [4]): 5.6 µM

Reference: US5852001A, “Method and compounds for inhibition of ribonucleases” (The Endowment for Research in Human Biology, priority 1996, dated 1998)
